The source of these data is patent publication US10184115B2, “Mutated cellobiose dehydrogenase with increased substrate specificity” (DIRECTSENS GMBH, priority 2012, dated 2019).

In this test the target is T1, Myriococcum thermophilum cellobiose dehydrogenase (CDH, SEQ ID NO: 1) variant N313S (Thermothelomyces myriococcoides, UniProt A9XK88, N313S).
T1 sequence (A9XK88 22-828 N313S): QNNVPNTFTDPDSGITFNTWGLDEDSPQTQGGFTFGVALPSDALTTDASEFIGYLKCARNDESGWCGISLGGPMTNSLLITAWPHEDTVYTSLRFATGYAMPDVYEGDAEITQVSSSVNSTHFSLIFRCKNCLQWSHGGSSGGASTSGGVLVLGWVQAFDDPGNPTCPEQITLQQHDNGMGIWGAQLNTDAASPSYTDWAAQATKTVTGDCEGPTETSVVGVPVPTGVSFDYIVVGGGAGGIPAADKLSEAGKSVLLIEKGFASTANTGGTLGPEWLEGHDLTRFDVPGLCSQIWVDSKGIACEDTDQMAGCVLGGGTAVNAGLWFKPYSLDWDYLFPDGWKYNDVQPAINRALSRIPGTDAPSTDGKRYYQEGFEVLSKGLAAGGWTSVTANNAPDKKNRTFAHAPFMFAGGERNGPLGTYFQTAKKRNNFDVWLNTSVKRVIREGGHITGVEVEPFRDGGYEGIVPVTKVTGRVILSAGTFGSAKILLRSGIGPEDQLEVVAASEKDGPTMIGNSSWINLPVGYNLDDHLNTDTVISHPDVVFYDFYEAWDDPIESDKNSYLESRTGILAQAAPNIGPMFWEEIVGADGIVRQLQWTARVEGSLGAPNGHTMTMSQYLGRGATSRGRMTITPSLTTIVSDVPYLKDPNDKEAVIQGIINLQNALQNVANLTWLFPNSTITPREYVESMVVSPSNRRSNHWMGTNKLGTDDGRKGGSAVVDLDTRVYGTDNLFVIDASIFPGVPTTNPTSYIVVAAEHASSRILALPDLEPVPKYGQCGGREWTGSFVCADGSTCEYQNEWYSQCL
Description: Steady-state kinetics, DCIP assay: M. thermophilum CDH N313S. Format: biochemical. The following applies: apparent, pH 4.5, 30° C. On the procedure:
Enzyme activity was assayed at 30° C. using either the DCIP (Karapetyan et al., 2005 Journal of Biotechnology 121: 34-48) or cytochrome c (Canevascini et al., 1991, European Journal of Biochemistry 198: 43-52) as electron acceptor. […] Stock solutions of carbohydrates used for kinetic measurements were prepared in the respective buffer and allowed to stand overnight for mutarotation, while stock solutions of electron acceptors were prepared in water and immediately used. The reaction stoichiometry is 1 for the two-electron acceptor DCIP (1 mole of DCIP reduced per mole of carbohydrate oxidized), but 2 for the one-electron acceptor cytochrome c. Kinetic constants were calculated by fitting the observed data to the Henri-Michaelis-Menten equation or to the adapted model for substrate inhibition using nonlinear least-squares regression and the program SigmaPlot (Systat Software, San Jose, Calif., USA). […]
Recombinant wild-type CDH as well as variants were produced in 1 L baffled flasks. […] Increase in activity was monitored using the DCIP and the cytochrome c enzyme assays. […]
The sample was loaded on a 20 mL PHE Sepharose FF column (HR26/20) equilibrated with 50 mM Na-acetate buffer pH 5.5 containing 20% ammonium sulfate. […] Fractions were tested for CDH activity and pooled according to the highest Reinheitszahl (RZ, calculated from the absorbance ratio 420 nm/280 nm). […]

Broadly, the kcat is the maximal rate divided by the concentration of active sites. One may read the kcat/KM as the second-order rate constant that governs catalysis at low substrate concentration. For `OC[C@H]1OC(O)[C@H](O)[C@@H](O)[C@@H]1O` (some centres unmarked) [Glucose, glucose], the kcat is 6.8 s⁻¹ and the kcat/KM worked out at 8.8 M⁻¹ s⁻¹.
